Experimental data from ChEMBL document CHEMBL4507259 (2021).

Key:
[1] = molecular target: T1, 5-hydroxytryptamine receptor 2B (Homo sapiens, UniProt P41595); assay: 5-HT2B (h) CEREP ligand profiling; conditions: filed as agonist, Compound concentration 10.0 uM
[2] = molecular target: Substance-K receptor (Homo sapiens) (UniProt P21452); assay: NK2 (h) CEREP ligand profiling; conditions: filed as agonist, Compound concentration 10.0 uM
[3] = molecular target: T2, Muscarinic acetylcholine receptor M4 (Homo sapiens) (UniProt P08173); assay: M4 (h) CEREP ligand profiling; conditions: filed as antagonist, Compound concentration 10.0 uM
T2 sequence (whole entry): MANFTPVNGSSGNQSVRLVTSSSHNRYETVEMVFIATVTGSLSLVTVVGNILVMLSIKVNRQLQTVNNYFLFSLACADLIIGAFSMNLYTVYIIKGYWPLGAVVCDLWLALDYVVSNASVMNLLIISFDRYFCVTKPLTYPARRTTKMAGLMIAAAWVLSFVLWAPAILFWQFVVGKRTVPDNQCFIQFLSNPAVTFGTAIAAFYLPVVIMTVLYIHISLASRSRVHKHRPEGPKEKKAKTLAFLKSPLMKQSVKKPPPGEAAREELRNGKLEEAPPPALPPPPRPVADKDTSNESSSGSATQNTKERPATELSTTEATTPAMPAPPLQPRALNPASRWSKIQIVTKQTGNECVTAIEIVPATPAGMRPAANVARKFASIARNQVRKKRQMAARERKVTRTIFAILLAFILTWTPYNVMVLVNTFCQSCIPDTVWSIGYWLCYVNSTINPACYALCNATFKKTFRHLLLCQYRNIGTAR

[4] = molecular target: Type-2 angiotensin II receptor (Homo sapiens) (UniProt P50052); assay: AT2 (h) CEREP ligand profiling; conditions: filed as agonist, Compound concentration 10.0 uM
[5] = system: Tyrosine-protein kinase ABL1 (Homo sapiens), P00519 [Q252H]; conditions: Compound concentration 1000.0 nM
[6] = system: Tyrosine-protein kinase ABL1 (Homo sapiens), P00519 [Y253F]; conditions: Compound concentration 1000.0 nM
[7] = molecular target: Protein-tyrosine kinase 6 (Homo sapiens) (UniProt Q13882); conditions: Compound concentration 1000.0 nM
Chain of Protein-tyrosine kinase 6 (Homo sapiens) (Q13882 whole entry, looked up, canonical isoform): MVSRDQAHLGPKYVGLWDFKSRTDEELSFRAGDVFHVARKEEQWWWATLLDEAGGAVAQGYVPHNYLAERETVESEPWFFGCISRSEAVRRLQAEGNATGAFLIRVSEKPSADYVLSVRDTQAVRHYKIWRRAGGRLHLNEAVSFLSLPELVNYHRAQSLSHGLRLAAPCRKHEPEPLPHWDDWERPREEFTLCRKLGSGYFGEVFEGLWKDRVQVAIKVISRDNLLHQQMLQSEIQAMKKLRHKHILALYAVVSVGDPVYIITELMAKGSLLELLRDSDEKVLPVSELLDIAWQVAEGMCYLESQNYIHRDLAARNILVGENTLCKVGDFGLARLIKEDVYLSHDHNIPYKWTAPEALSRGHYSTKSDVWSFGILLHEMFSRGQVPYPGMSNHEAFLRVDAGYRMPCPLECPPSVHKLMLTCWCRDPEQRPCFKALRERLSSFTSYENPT

[8] = molecular target: Casein kinase I isoform epsilon (Homo sapiens) (UniProt P49674); conditions: Compound concentration 1000.0 nM
[9] = molecular target: Serine/threonine-protein kinase DCLK1 (Homo sapiens) (UniProt O15075); conditions: Compound concentration 1000.0 nM
Chain of Serine/threonine-protein kinase DCLK1 (Homo sapiens) (O15075 whole entry): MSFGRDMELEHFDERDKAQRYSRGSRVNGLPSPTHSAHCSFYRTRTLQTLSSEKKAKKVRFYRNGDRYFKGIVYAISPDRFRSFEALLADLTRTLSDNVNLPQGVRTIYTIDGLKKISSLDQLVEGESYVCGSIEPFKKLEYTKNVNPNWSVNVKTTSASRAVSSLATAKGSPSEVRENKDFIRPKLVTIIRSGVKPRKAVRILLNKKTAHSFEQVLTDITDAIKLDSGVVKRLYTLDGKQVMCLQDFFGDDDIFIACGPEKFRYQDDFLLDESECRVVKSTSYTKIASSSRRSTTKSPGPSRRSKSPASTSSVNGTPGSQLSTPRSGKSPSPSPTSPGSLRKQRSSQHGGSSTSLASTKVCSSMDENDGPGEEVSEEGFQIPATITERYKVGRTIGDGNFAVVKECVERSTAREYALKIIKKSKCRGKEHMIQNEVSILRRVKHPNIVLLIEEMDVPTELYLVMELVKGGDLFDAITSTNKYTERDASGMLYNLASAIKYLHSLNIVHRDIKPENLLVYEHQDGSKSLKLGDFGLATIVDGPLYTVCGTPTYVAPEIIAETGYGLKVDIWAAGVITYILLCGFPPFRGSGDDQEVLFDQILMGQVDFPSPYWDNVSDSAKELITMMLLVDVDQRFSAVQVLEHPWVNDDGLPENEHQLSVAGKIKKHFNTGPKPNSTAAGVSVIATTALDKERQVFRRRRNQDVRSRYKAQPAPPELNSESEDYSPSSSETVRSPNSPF

[10] = molecular target: Ephrin type-B receptor 3 (Homo sapiens) (UniProt P54753); conditions: Compound concentration 1000.0 nM
Chain of Ephrin type-B receptor 3 (Homo sapiens) (P54753 whole entry): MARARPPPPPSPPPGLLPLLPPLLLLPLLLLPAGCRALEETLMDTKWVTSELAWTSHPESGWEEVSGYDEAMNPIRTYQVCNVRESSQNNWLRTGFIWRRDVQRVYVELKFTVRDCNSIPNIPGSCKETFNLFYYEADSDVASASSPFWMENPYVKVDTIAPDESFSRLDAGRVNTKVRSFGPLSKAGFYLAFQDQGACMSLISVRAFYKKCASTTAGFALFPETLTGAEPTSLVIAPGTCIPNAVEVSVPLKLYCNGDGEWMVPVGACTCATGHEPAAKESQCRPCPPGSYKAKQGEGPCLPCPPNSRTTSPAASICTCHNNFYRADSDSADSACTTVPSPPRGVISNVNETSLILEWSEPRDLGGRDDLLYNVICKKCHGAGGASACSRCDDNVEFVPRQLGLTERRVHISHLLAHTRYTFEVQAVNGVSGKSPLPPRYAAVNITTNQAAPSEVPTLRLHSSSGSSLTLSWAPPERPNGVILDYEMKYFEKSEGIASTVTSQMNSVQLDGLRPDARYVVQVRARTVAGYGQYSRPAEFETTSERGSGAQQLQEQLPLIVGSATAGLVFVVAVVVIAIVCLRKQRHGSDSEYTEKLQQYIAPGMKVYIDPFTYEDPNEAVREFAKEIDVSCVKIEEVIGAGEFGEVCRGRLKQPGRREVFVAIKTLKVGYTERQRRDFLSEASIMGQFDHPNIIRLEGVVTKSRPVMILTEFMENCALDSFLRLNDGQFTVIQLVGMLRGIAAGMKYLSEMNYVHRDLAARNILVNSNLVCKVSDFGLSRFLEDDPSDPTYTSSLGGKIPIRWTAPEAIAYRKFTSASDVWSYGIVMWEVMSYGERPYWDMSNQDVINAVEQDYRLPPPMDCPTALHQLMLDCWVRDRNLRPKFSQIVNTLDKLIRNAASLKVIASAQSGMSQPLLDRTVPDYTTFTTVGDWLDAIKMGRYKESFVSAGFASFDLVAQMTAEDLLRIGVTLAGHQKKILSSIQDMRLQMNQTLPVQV

[11] = molecular target: Mitogen-activated protein kinase 1 (Homo sapiens) (UniProt P28482); conditions: Compound concentration 1000.0 nM
[12] = molecular target: Mitogen-activated protein kinase 8 (Homo sapiens) (UniProt P45983); conditions: Compound concentration 1000.0 nM
[13] = molecular target: Mitogen-activated protein kinase kinase kinase kinase 3 (Homo sapiens) (UniProt Q8IVH8); conditions: Compound concentration 1000.0 nM
Chain of Mitogen-activated protein kinase kinase kinase kinase 3 (Homo sapiens) (Q8IVH8 whole entry): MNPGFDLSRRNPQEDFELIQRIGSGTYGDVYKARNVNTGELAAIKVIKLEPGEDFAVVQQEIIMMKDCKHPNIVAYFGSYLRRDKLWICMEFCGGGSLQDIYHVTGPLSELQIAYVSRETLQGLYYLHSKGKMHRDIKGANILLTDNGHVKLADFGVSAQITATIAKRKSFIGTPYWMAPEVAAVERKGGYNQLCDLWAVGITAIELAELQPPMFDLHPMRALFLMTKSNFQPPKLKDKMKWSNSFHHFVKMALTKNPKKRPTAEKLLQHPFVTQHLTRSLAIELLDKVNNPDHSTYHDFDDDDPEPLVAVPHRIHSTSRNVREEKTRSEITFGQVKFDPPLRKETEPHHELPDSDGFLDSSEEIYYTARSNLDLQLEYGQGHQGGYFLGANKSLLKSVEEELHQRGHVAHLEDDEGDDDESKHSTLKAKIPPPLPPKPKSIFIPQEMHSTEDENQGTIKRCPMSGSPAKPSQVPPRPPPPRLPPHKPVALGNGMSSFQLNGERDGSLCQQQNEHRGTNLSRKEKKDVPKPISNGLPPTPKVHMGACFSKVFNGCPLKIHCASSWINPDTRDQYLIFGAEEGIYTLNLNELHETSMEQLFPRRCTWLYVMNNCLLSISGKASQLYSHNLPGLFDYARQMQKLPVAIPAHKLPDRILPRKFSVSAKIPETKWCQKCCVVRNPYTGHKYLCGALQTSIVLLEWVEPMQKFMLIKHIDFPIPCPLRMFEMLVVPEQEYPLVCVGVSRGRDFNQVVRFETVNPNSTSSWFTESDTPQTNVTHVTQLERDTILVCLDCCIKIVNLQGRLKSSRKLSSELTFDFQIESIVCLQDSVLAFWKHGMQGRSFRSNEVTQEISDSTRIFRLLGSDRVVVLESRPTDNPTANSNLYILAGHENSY

[14] = molecular target: Serine/threonine-protein kinase MARK2 (Homo sapiens) (UniProt Q7KZI7); conditions: Compound concentration 1000.0 nM
[15] = molecular target: Maternal embryonic leucine zipper kinase (Homo sapiens) (UniProt Q14680); conditions: Compound concentration 1000.0 nM
[16] = molecular target: Serine/threonine-protein kinase mTOR (Homo sapiens) (UniProt P42345); conditions: Compound concentration 1000.0 nM
[17] = molecular target: Serine/threonine-protein kinase PLK3 (Homo sapiens) (UniProt Q9H4B4); conditions: Compound concentration 1000.0 nM
[18] = system: Proto-oncogene tyrosine-protein kinase receptor Ret (Homo sapiens), P07949 [V804L]; conditions: Compound concentration 1000.0 nM
[19] = molecular target: Ribosomal protein S6 kinase alpha-1 (Homo sapiens) (UniProt Q15418); conditions: Compound concentration 1000.0 nM
[20] = molecular target: Ribosomal protein S6 kinase alpha-3 (Homo sapiens) (UniProt P51812); conditions: Compound concentration 1000.0 nM
[21] = molecular target: Serine/threonine-protein kinase Sgk1 (Homo sapiens) (UniProt O00141); conditions: Compound concentration 1000.0 nM
Chain of Serine/threonine-protein kinase Sgk1 (Homo sapiens) (O00141 whole entry): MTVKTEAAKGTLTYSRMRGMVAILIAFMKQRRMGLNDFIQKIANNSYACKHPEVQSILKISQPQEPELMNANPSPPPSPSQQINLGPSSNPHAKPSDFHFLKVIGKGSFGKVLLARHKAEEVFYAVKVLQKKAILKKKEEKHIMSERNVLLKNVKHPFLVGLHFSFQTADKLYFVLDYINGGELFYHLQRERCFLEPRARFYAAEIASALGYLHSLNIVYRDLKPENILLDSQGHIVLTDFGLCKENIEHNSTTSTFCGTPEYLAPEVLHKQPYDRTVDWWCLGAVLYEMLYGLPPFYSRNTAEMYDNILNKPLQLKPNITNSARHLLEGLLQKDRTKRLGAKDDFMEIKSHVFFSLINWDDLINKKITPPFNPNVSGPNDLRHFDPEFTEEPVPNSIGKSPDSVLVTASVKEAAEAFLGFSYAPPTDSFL

[22] = molecular target: Serine/threonine-protein kinase TAO2 (Homo sapiens) (UniProt Q9UL54); conditions: Compound concentration 1000.0 nM
[23] = molecular target: Transient receptor potential cation channel subfamily M member 6 (Homo sapiens) (UniProt Q9BX84); conditions: Compound concentration 1000.0 nM
[24] = molecular target: Tyrosine-protein kinase TXK (Homo sapiens) (UniProt P42681); conditions: Compound concentration 1000.0 nM
[25] = molecular target: Serine/threonine-protein kinase 32A (Homo sapiens) (UniProt Q8WU08); conditions: Compound concentration 1000.0 nM
Chain of Serine/threonine-protein kinase 32A (Homo sapiens) (Q8WU08 whole entry): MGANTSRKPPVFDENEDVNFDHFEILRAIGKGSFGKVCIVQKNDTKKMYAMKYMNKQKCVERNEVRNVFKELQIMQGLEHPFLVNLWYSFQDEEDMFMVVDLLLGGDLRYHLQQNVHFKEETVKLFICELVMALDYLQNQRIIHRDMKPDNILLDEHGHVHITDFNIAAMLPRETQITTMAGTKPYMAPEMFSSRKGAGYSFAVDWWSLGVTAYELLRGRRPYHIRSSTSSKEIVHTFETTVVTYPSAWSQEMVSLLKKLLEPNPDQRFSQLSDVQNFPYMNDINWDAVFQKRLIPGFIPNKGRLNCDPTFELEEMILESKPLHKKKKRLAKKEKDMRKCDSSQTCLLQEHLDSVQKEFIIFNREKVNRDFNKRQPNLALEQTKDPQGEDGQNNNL

[26] = molecular target: T1, 5-hydroxytryptamine receptor 2B; conditions: Compound concentration 10.0 uM
[27] = molecular target: Sodium-dependent dopamine transporter (Homo sapiens, UniProt Q01959); conditions: Compound concentration 10.0 uM
Chain of Sodium-dependent dopamine transporter (Q01959 whole entry): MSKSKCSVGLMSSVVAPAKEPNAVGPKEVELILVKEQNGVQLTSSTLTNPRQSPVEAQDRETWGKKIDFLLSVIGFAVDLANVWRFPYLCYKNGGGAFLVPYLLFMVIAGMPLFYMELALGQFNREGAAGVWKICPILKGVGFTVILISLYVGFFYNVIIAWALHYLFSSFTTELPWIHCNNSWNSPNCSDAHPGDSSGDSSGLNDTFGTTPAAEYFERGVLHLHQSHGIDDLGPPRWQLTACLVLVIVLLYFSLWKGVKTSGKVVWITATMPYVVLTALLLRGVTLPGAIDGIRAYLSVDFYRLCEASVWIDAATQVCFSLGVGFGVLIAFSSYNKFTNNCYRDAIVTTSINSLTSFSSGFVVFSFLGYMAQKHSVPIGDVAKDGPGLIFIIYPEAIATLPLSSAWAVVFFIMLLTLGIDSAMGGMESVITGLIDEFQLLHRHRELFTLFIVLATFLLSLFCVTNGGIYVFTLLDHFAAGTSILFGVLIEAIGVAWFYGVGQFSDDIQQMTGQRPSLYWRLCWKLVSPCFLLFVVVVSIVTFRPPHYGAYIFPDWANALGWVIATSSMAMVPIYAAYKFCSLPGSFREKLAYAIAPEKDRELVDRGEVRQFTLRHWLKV

[28] = molecular target: Kappa-type opioid receptor (Homo sapiens) (UniProt P41145); conditions: Compound concentration 10.0 uM
[29] = molecular target: GABA-A receptor; anion channel (Rattus norvegicus) (UniProt O09028+P15431+P18506+P18508+P19969+P20236+P23574+P23576+P28471+P28473+P30191+P62813+P63079+P63138+Q91ZM7+Q9ES14); conditions: Compound concentration 10.0 uM
[30] = molecular target: T3, Alpha-2A adrenergic receptor (Homo sapiens) (UniProt P08913); conditions: Compound concentration 10.0 uM
T3 sequence (whole entry): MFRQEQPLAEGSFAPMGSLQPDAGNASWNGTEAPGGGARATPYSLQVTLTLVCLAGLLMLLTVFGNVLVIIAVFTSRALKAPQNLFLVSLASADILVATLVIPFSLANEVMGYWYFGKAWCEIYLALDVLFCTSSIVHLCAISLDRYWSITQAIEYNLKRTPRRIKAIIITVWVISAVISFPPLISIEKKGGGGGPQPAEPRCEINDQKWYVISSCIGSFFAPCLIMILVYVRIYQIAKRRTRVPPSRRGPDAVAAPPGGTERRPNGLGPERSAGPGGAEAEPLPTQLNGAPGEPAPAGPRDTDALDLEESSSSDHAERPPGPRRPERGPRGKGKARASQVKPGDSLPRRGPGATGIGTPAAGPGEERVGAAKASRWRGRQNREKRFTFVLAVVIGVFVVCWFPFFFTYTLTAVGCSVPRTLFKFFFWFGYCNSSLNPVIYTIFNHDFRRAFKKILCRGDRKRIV

[31] = molecular target: T2, Muscarinic acetylcholine receptor M4 (Homo sapiens); conditions: Compound concentration 10.0 uM

T1 sequence (P41595 whole entry): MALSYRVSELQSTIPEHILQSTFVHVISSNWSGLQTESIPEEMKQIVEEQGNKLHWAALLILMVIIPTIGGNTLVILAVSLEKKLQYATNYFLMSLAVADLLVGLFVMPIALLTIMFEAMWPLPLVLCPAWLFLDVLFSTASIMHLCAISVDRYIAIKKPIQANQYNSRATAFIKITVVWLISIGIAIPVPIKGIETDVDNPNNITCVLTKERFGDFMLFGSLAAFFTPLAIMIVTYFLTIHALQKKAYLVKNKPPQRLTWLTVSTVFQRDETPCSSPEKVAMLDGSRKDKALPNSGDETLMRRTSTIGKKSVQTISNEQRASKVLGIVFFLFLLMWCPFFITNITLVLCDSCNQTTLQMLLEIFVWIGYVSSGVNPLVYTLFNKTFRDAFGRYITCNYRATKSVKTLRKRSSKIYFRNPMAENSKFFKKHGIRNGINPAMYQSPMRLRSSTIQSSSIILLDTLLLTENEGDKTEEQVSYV

| Structure (SMILES) | inhibition [1] [%] | inhibition [2] [%] | inhibition [3] [%] | inhibition [4] [%] | residual activity [5] [%] | residual activity [6] [%] | residual activity [7] [%] | residual activity [8] [%] | residual activity [9] [%] | residual activity [10] [%] | residual activity [11] [%] | residual activity [12] [%] | residual activity [13] [%] | residual activity [14] [%] | residual activity [15] [%] | residual activity [16] [%] | residual activity [17] [%] | residual activity [18] [%] | residual activity [19] [%] | residual activity [20] [%] | other results |
| --- | --- | --- | --- | --- | --- | --- | --- | --- | --- | --- | --- | --- | --- | --- | --- | --- | --- | --- | --- | --- | --- |
| CNC(=O)Nc1ccc2c(c1)CC[C@@]21OC(=O)N(CC(=O)N(Cc2ccc(F)cc2)[C@@H](C)C(F)(F)F)C1=O [A-485] | 73 | 18 | 14 | 12 | 72 | 81 | 87 | 80 | 96 | 80 | 91 | 65 | 76 | 100 | 91 | 92 | 86 | 91 | 86 | 87 | residual activity [21]: 63%; residual activity [22]: 91%; residual activity [23]: 100%; residual activity [24]: 78%; residual activity [25]: 88%; inhibition [26]: 81.4%; inhibition [27]: 63.9%; inhibition [28]: 18.5%; inhibition [29]: 8.97%; inhibition [30]: 3.72%; inhibition [31]: 11.2% |
| CNC(=O)Nc1ccc2c(c1)[C@@]1(CC2)OC(=O)N(CC(=O)N(Cc2ccc(F)cc2)[C@@H](C)C(F)(F)F)C1=O [A-486] | 5 | 12 | 6 | 2 | 88 | 100 | 90 | 80 | 76 | 86 | 91 | 71 | 89 | 100 | 100 | 100 | 84 | 94 | 96 | 84 | residual activity [21]: 54%; residual activity [22]: 95%; residual activity [23]: 98%; residual activity [24]: 100%; residual activity [25]: 100%; inhibition [26]: 29.2%; inhibition [27]: -6.45%; inhibition [28]: 8.21%; inhibition [29]: 9.54%; inhibition [30]: -1.4%; inhibition [31]: 30.4% |
